Values quoted from earlier work in patent US11905435B2, “Antimicrobial additive compositions for coatings” (PEGASUS ENVIRONMENTAL RESEARCH AND INVESTMENT GROUP LLC, priority 2020, dated 2024).

Legend:
enteric bacteria = settings: Bailey et al. [5]
Pityrosporum ovale = settings: Imokawa et al. [6]
[1] = test system: Saccharomyces cerevisiae yeast; settings: Reeder et al. [7]

| Compound | antibacterial effects on enteric bacteria (enteric bacteria) | antifungal effects on Pityrosporum ovale (Pityrosporum ovale) | anti-yeast effect on Saccharomyces cerevisiae [1] |
| --- | --- | --- | --- |
| OB(O)O [boric acid] | antibacterial effects |  |  |
| zinc pyrithione [CP] |  | antifungal effects | anti-yeast effect |
